According to patent US9586907B2, “Isothiocyanate compounds, pharmaceutical compositions, and uses thereof” (priority 2006, dated 2017):
≈ marks a conversion by molar mass, not a printed value. Read-outs that look alike come from different tables or passages of the source.

Assays:
Shigella sp., BK 12440 = assay: MIC, Shigella sp., BK 12440; format: cell-based; conditions: Gram −, 24 hours of incubation, read-out: MIC
Shigella sp., BK 12441 = assay: MIC, Shigella sp., BK 12441; format: cell-based; conditions: Gram −, 24 hours of incubation, read-out: MIC
[1] = system: Bacillus subtilis BK11590; assay: MIC, Bacillus subtilis BK11590; format: cell-based; conditions: Gram +, 24 hours of incubation, read-out: MIC
M. intracellularie = assay: MIC, M. intracellularie; format: cell-based
M. avium = assay: MIC, M. avium; format: cell-based; conditions: Mycobacterium avium
M. scrofulaceum = assay: MIC, M. scrofulaceum; format: cell-based; conditions: Mycobacterium scrofulaceum
M. cansassi = assay: MIC, M. cansassi; format: cell-based
M. fortuitum = assay: MIC, M. fortuitum; format: cell-based; conditions: Mycolicibacterium fortuitum
M. tuberculosis W = assay: MIC, M. tuberculosis W; format: cell-based; conditions: Mycobacterium tuberculosis, read-out: MIC
Experimental: (§1) Next, several of the bifunctional ITC compounds were tested for their ability to inhibit the growth of some clinical isolates of Mycobacteria, the results of which are summarized in Table 3 below.

M. tuberculosis H37Rv = assay: MIC, M. tuberculosis H37Rv; format: cell-based; conditions: Mycobacterium tuberculosis, read-out: MIC
Experimental: as §1

M. tuberculosis CDC1551 = assay: MIC, M. tuberculosis CDC1551; format: cell-based; conditions: Mycobacterium tuberculosis, read-out: MIC
Experimental: as §1

M. tuberculosis P = assay: MIC, M. tuberculosis P; format: cell-based; conditions: Mycobacterium tuberculosis, read-out: MIC
Experimental: as §1

[2] = system: MRSA (Staphylococcus aureus) BK12060; assay: MIC, MRSA BK12060; conditions: Staphylococcus aureus, MRSA, 24 h
[3] = system: MRSA (Staphylococcus aureus) BK12064; assay: MIC, MRSA BK12064; conditions: Staphylococcus aureus, MRSA, 24 h
Escherichia coli K12 = assay: MIC, Escherichia coli K12; conditions: Escherichia coli, K12, 24 h
Bacillus cereus 4342 = assay: MIC, Bacillus cereus 4342; conditions: Bacillus cereus, 4342, 24 h
Escherichia coli BK12336 = assay: MIC, Escherichia coli BK12336; conditions: Escherichia coli, BK12336, 24 h
[4] = system: Enterococcus sp., BK11936; assay: MIC, Enterococcus sp., BK11936; conditions: Enterococcus, 24 h
[5] = system: Enterococcus sp., BK11940; assay: MIC, Enterococcus sp., BK11940; conditions: Enterococcus, 24 h
[6] = system: Acinetobacter sp., BK12786; assay: MIC, Acinetobacter sp., BK12786; conditions: Acinetobacter, 24 h
[7] = system: Acinetobacter sp., BK12787; assay: MIC, Acinetobacter sp., BK12787; conditions: Acinetobacter, 24 h
[8] = system: Streptococcus sp., BK12233; assay: MIC, Streptococcus sp., BK12233; conditions: Streptococcus, 24 h
[9] = system: Streptococcus sp., BK12235; assay: MIC, Streptococcus sp., BK12235; conditions: Streptococcus, 24 h
[10] = system: Serattia marcescens BK12421; assay: MIC, Serattia marcescens BK12421; conditions: 24 h
[11] = system: Serattia marcescens BK12426; assay: MIC, Serattia marcescens BK12426; conditions: 24 h
[12] = system: Enterobacter cloacii BK12313; assay: MIC, Enterobacter cloacii BK12313; conditions: Enterobacter, BK12313, 24 h
[13] = system: Enterobacter cloacii BK12315; assay: MIC, Enterobacter cloacii BK12315; conditions: Enterobacter, BK12315, 24 h
[14] = system: Klebsiella pneumonii BK12260; assay: MIC, Klebsiella pneumonii BK12260; conditions: Klebsiella, BK12260, 24 h
[15] = system: Klebsiella pneumonii BK12261; assay: MIC, Klebsiella pneumonii BK12261; conditions: Klebsiella, BK12261, 24 h
[16] = system: Pseudomonas aeruginosa BK12347; assay: MIC, Pseudomonas aeruginosa BK12347; conditions: Pseudomonas aeruginosa, BK12347, 24 h
[17] = system: Pseudomonas aeruginosa BK12348; assay: MIC, Pseudomonas aeruginosa BK12348; conditions: Pseudomonas aeruginosa, BK12348, 24 h
Candida crusei 6258^mdr = assay: microbe, parasite or virus in culture; conditions: read-out: Anti-Fungal Activity (MIC)
[18] = system: Staphylococcus epidermidis BK12798; assay: MIC, Staphylococcus epidermidis BK12798; conditions: Staphylococcus epidermidis, BK12798, 24 h
[19] = system: Staphylococcus epidermidis BK12799; assay: MIC, Staphylococcus epidermidis BK12799; conditions: Staphylococcus epidermidis, BK12799, 24 h
Candida albicans 90028 = assay: Anti-fungal MIC, Candida albicans 90028; conditions: Candida albicans, 90028, read-out: Anti-Fungal Activity (MIC)
Candida albicans 90030 = assay: Anti-fungal MIC, Candida albicans 90030; conditions: Candida albicans, 90030, read-out: Anti-Fungal Activity (MIC)
Candida dlabrata 250^mdr = assay: Anti-fungal MIC, Candida dlabrata 250^mdr; conditions: Candida, read-out: Anti-Fungal Activity (MIC)
[20] = system: Candida albicans 5108^mdr; assay: Anti-fungal MIC, Candida albicans 5108^mdr; conditions: Candida albicans, read-out: Anti-Fungal Activity (MIC)
[21] = system: Candida parapsilosis 22019; assay: Anti-fungal MIC, Candida parapsilosis 22019; conditions: 22019, read-out: Anti-Fungal Activity (MIC)
[22] = system: Aspergillus fumigatus Rit 1; assay: Anti-fungal MIC, Aspergillus fumigatus Rit 1; conditions: Aspergillus fumigatus, RIT1, read-out: Anti-Fungal Activity (MIC)
[23] = system: Aspergillus fumigatus Rit 11; assay: Anti-fungal MIC, Aspergillus fumigatus Rit 11; conditions: Aspergillus fumigatus, RIT11, read-out: Anti-Fungal Activity (MIC)
[24] = system: Aspergillus fumigatus Rit 21; assay: Anti-fungal MIC, Aspergillus fumigatus Rit 21; conditions: Aspergillus fumigatus, RIT21, read-out: Anti-Fungal Activity (MIC)
[25] = system: Cryptococcus neoformans CNH99; assay: Anti-fungal MIC, Cryptococcus neoformans CNH99; conditions: Cryptococcus neoformans, CNH99, read-out: Anti-Fungal Activity (MIC)
[26] = system: clinical isolates of bacteria and fungus (including yeasts); assay: General antimicrobial activity, semi-quantitative score on collection of clinical isolates; format: cell-based; for General antimicrobial activity: key: −: indicating no activity; +++++: indicating highest activity
Experimental: The growth inhibitory effect of a number of various ITC compounds were tested on large collection of clinical isolates of bacteria and fungus (including yeasts), in order to establish a systematic structure-activity relationship for the ITC compounds. […] To assess the average activity for an individual ITC compound, the semi-quantitative score was calculated for each compound based on the number of sensitive bacterial strains at concentrations of 100 and 200 μM.

[27] = Compound stability, independent experiments; format: physicochemical
[28] = In vivo tolerance in mice; conditions: highest dose, 50 mg/kg
virus (92TH594) = assay: Viral proliferation in PBMC, p24 viral antigen; format: cell-based; conditions: PBMC
Bacillus cereus = assay: Activity of ITC compounds against Bacillus cereus; format: cell-based
[29] = system: Staphylococcus epidermidis; assay: Activity against Staphylococcus epidermidis (data not shown); format: cell-based
[30] = system: methicillin-resistant Staphylococcus aureus (MRSA); assay: Activity against MRSA (data not shown); format: cell-based

COc1ccc(CN=C=S)cc1 [Compound 2, reference compound]
MIC (Shigella sp., BK 12440): 64 µg/mL (≈ 357 µM) | MIC (Shigella sp., BK 12441): 32 to 64 µg/mL (≈ 179 to 357 µM) | MIC [1]: 32 to 64 µg/mL (≈ 179 to 357 µM) | MIC (M. intracellularie; M. intracellularie, read-out: MIC): 32 µg/mL (≈ 179 µM) | MIC (M. avium; M. avium, read-out: MIC): 32 µg/mL (≈ 179 µM) | MIC (M. scrofulaceum; M. scrofulaceum, read-out: MIC): 32 µg/mL (≈ 179 µM) | MIC (M. cansassi; M. cansassi, read-out: MIC): 32 µg/mL (≈ 179 µM) | MIC (M. fortuitum; M. fortuitum, read-out: MIC): 32 µg/mL (≈ 179 µM) | MIC (M. tuberculosis W): 8 µg/mL (≈ 44.6 µM) | MIC (M. tuberculosis H37Rv): 32 µg/mL (≈ 179 µM) | MIC (M. tuberculosis CDC1551): 32 µg/mL (≈ 179 µM) | MIC (M. tuberculosis P): 8 µg/mL (≈ 44.6 µM) | MIC [2]: 32 to 64 µg/mL (≈ 179 to 357 µM) | MIC [3]: 64 µg/mL (≈ 357 µM) | MIC (Escherichia coli K12): 64 µg/mL (≈ 357 µM) | MIC (Bacillus cereus 4342): 32 µg/mL (≈ 179 µM) | MIC (Escherichia coli BK12336): > 64 µg/mL | MIC [4]: 64 µg/mL (≈ 357 µM) | MIC [5]: 64 µg/mL (≈ 357 µM) | MIC [6]: > 64 µg/mL | MIC [7]: > 64 µg/mL | MIC [8]: 4 µg/mL (≈ 22.3 µM) | MIC [9]: 8 µg/mL (≈ 44.6 µM) | MIC [10]: > 64 µg/mL | MIC [11]: > 64 µg/mL | MIC [12]: > 64 µg/mL | MIC [13]: > 64 µg/mL | MIC [14]: > 64 µg/mL | MIC [15]: > 64 µg/mL | MIC [16]: > 64 µg/mL | MIC [17]: > 64 µg/mL | MIC (Candida crusei 6258^mdr): 2 µg/mL (≈ 11.2 µM) | MIC [18]: 32 µg/mL (≈ 179 µM) | MIC [19]: 32 µg/mL (≈ 179 µM) | MIC (Candida albicans 90028): 4 µg/mL (≈ 22.3 µM) | MIC (Candida albicans 90030): 4 µg/mL (≈ 22.3 µM) | MIC (Candida dlabrata 250^mdr; 48 h): 1 µg/mL (≈ 5.58 µM) | MIC [20]: 2 µg/mL (≈ 11.2 µM) | MIC [21]: 4 µg/mL (≈ 22.3 µM) | MIC [22]: 8 µg/mL (≈ 44.6 µM) | MIC [23]: 8 µg/mL (≈ 44.6 µM) | MIC [24]: 8 µg/mL (≈ 44.6 µM) | MIC [25]: < 1 µg/mL

S=C=NCc1ccncc1 [Compound 29]
General antimicrobial activity ([26]; semi-quantitative score from number of sensitive bacterial strains at 100 and 200 μM, deduced from number of sensitive bacterial species and average MIC): − | stability of the compound [27]: instability of the compound

S=C=NCc1cccnc1 [Compound 30]
MIC (M. intracellularie): 32 µg/mL (≈ 213 µM) | MIC (M. avium): 32 µg/mL (≈ 213 µM) | MIC (M. scrofulaceum): 32 µg/mL (≈ 213 µM) | MIC (M. cansassi): 32 µg/mL (≈ 213 µM) | MIC (M. fortuitum): 16 µg/mL (≈ 107 µM) | MIC (M. tuberculosis W): 4 µg/mL (≈ 26.6 µM) | MIC (M. tuberculosis H37Rv): 32 µg/mL (≈ 213 µM) | MIC (M. tuberculosis CDC1551): 16 µg/mL (≈ 107 µM) | MIC (M. tuberculosis P): 4 µg/mL (≈ 26.6 µM) | toxicity in treated mice [28]: no toxicity was observed | P24 values (virus (92TH594); compound 2.5 μg/ml, added to the cells after viral infection): 643 pg/mL | P24 values (virus (92TH594); compound 2.5 μg/ml, added to the cells before viral infection): 320 pg/mL | P24 values (virus (92TH594); compound 10 μg/ml, added to the cells after viral infection): 155 pg/mL | P24 values (virus (92TH594); compound 10 μg/ml, added to the cells before viral infection): 0 pg/mL | activity against Bacillus cereus (in words) (Bacillus cereus): only moderately active | MIC (Candida crusei 6258^mdr): 0.5 µg/mL (≈ 3.33 µM) | MIC (Candida albicans 90028): 2 µg/mL (≈ 13.3 µM) | MIC (Candida albicans 90030): 1 µg/mL (≈ 6.66 µM) | MIC (Candida dlabrata 250^mdr; 48 h): 2 µg/mL (≈ 13.3 µM) | MIC [20]: 0.5 µg/mL (≈ 3.33 µM) | MIC [21]: 1 µg/mL (≈ 6.66 µM) | MIC [22]: 4 µg/mL (≈ 26.6 µM) | MIC [23]: 4 µg/mL (≈ 26.6 µM) | MIC [24]: 4 µg/mL (≈ 26.6 µM) | MIC [25]: 1 µg/mL (≈ 6.66 µM)

S=C=NCc1ccc2ccc3cccc4ccc1c2c34 [Compound 33]
antimicrobial / growth-inhibitory activity (in words) ([26]; Table 1 screen): poor growth-inhibitory activity | activity against Bacillus cereus (in words) (Bacillus cereus): very efficient | activity against Staphylococcus epidermidis (in words) [29]: very efficient | activity against MRSA (in words) [30]: very efficient | MIC (Candida crusei 6258^mdr): > 64 µg/mL | MIC (Candida albicans 90028): 32 µg/mL (≈ 117 µM) | MIC (Candida albicans 90030): 8 µg/mL (≈ 29.3 µM) | MIC (Candida dlabrata 250^mdr): 64 µg/mL (≈ 234 µM) | MIC [20]: > 64 µg/mL | MIC [21]: 32 µg/mL (≈ 117 µM) | MIC [22]: > 64 µg/mL | MIC [23]: > 64 µg/mL | MIC [24]: > 64 µg/mL | MIC [25]: 4 µg/mL (≈ 14.6 µM)
